Among the data in US10858366B2 (priority 2016, dated 2020) are IC50 and EC50 values, retold here.

For orientation: IC50 means the concentration at which inhibition is half-maximal. Lower therefore signals greater potency in that assay. As usually defined, the EC50 is the concentration at which the effect is half-maximal. High values mean a need for much substance, low ones an effect from little substance.

The target in assay [1] is truncated Influenza A/victoria/75 PA(1-209) (Influenza A virus (strain A/Victoria/3/1975 H3N2), UniProt P31343). Description: Endonuclease Inhibition Assay (PA FP Assay). The class given is binding. Particulars: fluorescence polarization, fluorescein-labeled probe. The protocol: Endonuclease Inhibition Assay (PA FP Assay)
Compounds were dissolved and serially diluted in 100% DMSO then 0.5 μl was transferred to 384-well plates. 50 nM truncated Influenza A/victoria/75 PA(1-209) was prepared in assay buffer (20 mM Tris, pH=7.5, 10 mM MgCl2, 0.01% Tween 20, 100 mM NaCl and 1 mM DTT) and 20 ul was added to each well of assay plate with compounds, centrifuged for 1 min at 1000 rpm and incubated for 30 min at room temperature. 20 μl of 20 nM fluorescein-labeled probe [5-(4-(3-carboxy-3-oxopropanoyl)-4-(4-chlorobenzyl)piperidine-1-carbonyl)-2-(6-hydroxy-3-oxo-3H-xanthen-9-yl)benzoic acid] in assay buffer was then added, centrifuged for 1 min at 1000 rpm and incubated for 60 min at room temperature.
Fluorescence polarization was measured on Perkin Elmer Envision plate reader with excitation at 480 nm and emission at 535 nm and reported in millipolarization units (mP). IC50 values were determined relative to wells containing 125 uM of a compound known to bind to the active site of PA and uninhibited wells containing 1.25% DMSO.
A general note: In fluorescence polarisation assays a small probe gives low polarisation when free and higher when bound to something large.

Assay [2] concerns the target RNP_CAL (PB2, PB1, PA, NP, influenza A Luciferase reporter in 293T cells) (Influenza A virus (strain swl A/California/04/2009 H1N1), UniProt C3W5S0). Description: cell-based.

In assay [1], `O=c1cnn2c(c1O)-c1nccn1CC2C(c1ccccc1)c1ccccc1` (centres unmarked) [Example 1, 6-Benzhydryl-11-hydroxy-5H-imidazo[2′,1′:3,4]pyrazino[1,2-b]pyridazin-10(6H)-one] displayed an IC50 of 50 nM. The molecule further registered an EC50 in assay [2] of 110 nM.

`O=c1cnn2c(c1O)-c1nccn1CC2C(c1cccc(F)c1)c1cccc(F)c1` (centres unmarked) [Example 2, 6-(bis(3-fluorophenyl)methyl)-11-hydroxy-5,6-dihydro-10H-imidazo[2′,1′:3,4]pyrazino[1,2-b]pyridazin-10-one] gave a half-inhibitory concentration (IC50) in assay [1] of 70 nM. The molecule also gave an EC50 in assay [2] of 110 nM.

In turn, `O=c1cnn2c(c1O)-c1ncnn1CC2C(c1ccccc1)c1ccccc1` (centres unmarked) [Example 3, 6-benzhydryl-11-hydroxy-5,6-dihydro-10H-[1,2,4]triazolo[5′,1′:3,4]pyrazino[1,2-b]pyridazin-10-one] registered an IC50 in assay [1] of 400 nM. This molecule also came in with an EC50 in assay [2] of 1100 nM.

For `O=c1ccn2c(c1O)-c1nccn1C[C@@H]2C(c1ccccc1)c1ccccc1` [Example 4, (S)-6-Benzhydryl-11-hydroxy-5H-imidazo[1,2-a]pyrido[2,1-c]pyrazin-10(6H)-one], the IC50 in assay [1] was determined as 10 nM. In assay [2], this molecule returned an EC50 of 160 nM.

In turn, `O=c1ccn2c(c1O)-c1ncc(Cl)n1C[C@@H]2C(c1ccccc1)c1ccccc1` [Example 5, (S)-6-Benzhydryl-3-chloro-11-hydroxy-5,6-dihydro-10H-imidazo[1,2-a]pyrido[2,1-c]pyrazin-10-one] came in with a 50% inhibitory concentration (IC50) in assay [1] of 20 nM. This molecule also displayed an EC50 in assay [2] of 100 nM.

For `O=c1ccn2c(c1O)-c1nccn1CN2C(c1ccccc1)c1ccccc1` [Example 6, 6-benzhydryl-11-hydroxy-5H-imidazo[1,2-d]pyrido[2,1-f][1,2,4]triazin-10(6H)-one], the concentration for half-maximal inhibition (IC50) in assay [1] turned out to be 40 nM. The molecule also returned a half-maximal effective concentration (EC50) in assay [2] of 190 nM.

For `O=c1cnn2c(c1O)-c1nccn1C[C@@H]2[C@@H](c1ccc(F)cc1)c1cccc(Br)c1` [Example 30, (S)-6-((S)-(3-bromophenyl)(4-fluorophenyl)methyl)-11-hydroxy-5,6-dihydro-10H-imidazo[2′,1′:3,4]pyrazino[1,2-b]pyridazin-10-one], half-maximal inhibition in assay [1] (IC50) was put at 10 nM.

In assay [2], `O=c1cnn2c(c1O)-c1nc(Br)c(Br)n1C[C@@H]2C(c1ccc(F)cc1)c1ccc(F)cc1` [Example 48, (S)-6-(bis(4-fluorophenyl)methyl)-2,3-dibromo-11-hydroxy-5,6-dihydro-10H-imidazo[2′,1′:3,4]pyrazino[1,2-b]pyridazin-10-one] had an EC50 of 4300 nM. In other words, the single-digit micromolar range.

Take `N#Cc1cnc2n1C[C@H](C(c1ccc(F)cc1)c1ccc(F)cc1)n1ncc(=O)c(O)c1-2` [Example 49, (S)-6-(bis(4-fluorophenyl)methyl)-11-hydroxy-10-oxo-5,6-dihydro-10H-imidazo[2′,1′:3,4]pyrazino[1,2-b]pyridazine-3-carbonitrile]: a half-maximal response in assay [2] (EC50) required 820 nM.

For `O=c1cnn2c(c1O)-c1ncc(CO)n1C[C@@H]2C(c1ccc(F)cc1)c1ccc(F)cc1` [Example 50, (S)-6-(bis(4-fluorophenyl)methyl)-11-hydroxy-3-(hydroxymethyl)-5,6-dihydro-10H-imidazo[2′,1′:3,4]pyrazino[1,2-b]pyridazin-10-one], in assay [2], the EC50 was determined as 100 nM.

`Cc1ccccc1[C@H](c1ccc(F)cc1)[C@H]1Cn2c(CO)cnc2-c2c(O)c(=O)cnn21` [Example 51, (S)-6-((S)-(4-fluorophenyl)(o-tolyl)methyl)-11-hydroxy-3-(hydroxymethyl)-5,6-dihydro-10H-imidazo[2′,1′:3,4]pyrazino[1,2-b]pyridazin-10-one] showed a 50% effective concentration (EC50) in assay [2] of 90 nM.

`O=c1ccn2c(c1O)-c1ncc(CO)n1C[C@@H]2C(c1ccccc1)c1ccccc1` [Example 54, (S)-6-benzhydryl-11-hydroxy-3-(hydroxymethyl)-5,6-dihydro-10H-imidazo [1,2-a]pyrido[2,1-c]pyrazin-10-one] gave an IC50 in assay [1] of 100 nM. In other words, the sub-micromolar range.

The molecule `CC(O)c1cnc2n1C[C@H](C(c1ccccc1)c1ccccc1)n1ccc(=O)c(O)c1-2` (stereo partly drawn) [Example 55, (6S)-6-benzhydryl-11-hydroxy-3-(1-hydroxyethyl)-5H-imidazo[1,2-a]pyrido[2,1-c]pyrazin-10(6H)-one] yielded an EC50 in assay [2] of 1700 nM.

As for `O=c1ccn2c(c1O)-c1ncc(CN3CCSCC3)n1C[C@@H]2C(c1ccccc1)c1ccccc1` [Example 62, (S)-6-benzhydryl-11-hydroxy-3-(thiomorpholinomethyl)-5,6-dihydro-10H-imidazo[1,2-a]pyrido[2,1-c]pyrazin-10-one], a half-maximal response in assay [2] (EC50) required 640 nM.

In the case of `O=c1ccn2c(c1O)-c1ncc(CNC3CCOCC3)n1C[C@@H]2C(c1ccccc1)c1ccccc1` [Example 65, (S)-6-benzhydryl-11-hydroxy-3-(((tetrahydro-2H-pyran-4-yl)amino)methyl)-5,6-dihydro-10H-imidazo[1,2-a]pyrido[2,1-c]pyrazin-10-one], the half-maximal effective concentration (EC50) in assay [2] stood at 3500 nM.

On to `C[C@@H](NCc1cnc2n1C[C@H](C(c1ccccc1)c1ccccc1)n1ccc(=O)c(O)c1-2)C(F)(F)F` [Example 66, (S)-6-benzhydryl-11-hydroxy-3-((((R)-1,1,1-trifluoropropan-2-yl)amino)methyl)-5,6-dihydro-10H-imidazo[1,2-a]pyrido[2,1-c]pyrazin-10-one], for which it took 310 nM to reach a half-maximal effect in assay [2] (EC50). This EC50 lies about 11-fold lower than the previous one.

`O=C(NC1CC1)c1cnc2n1C[C@H](C(c1ccccc1)c1ccccc1)n1ccc(=O)c(O)c1-2` [Example 70, (S)-6-benzhydryl-N-cyclopropyl-11-hydroxy-10-oxo-5,6-dihydro-10H-imidazo[1,2-a]pyrido[2,1-c]pyrazine-3-carboxamide] displayed an EC50 in assay [2] of 1700 nM.

`O=C(c1cnc2n1C[C@H](C(c1ccccc1)c1ccccc1)n1ccc(=O)c(O)c1-2)N1CCCC1` [Example 72, (S)-6-benzhydryl-11-hydroxy-3-(pyrrolidine-1-carbonyl)-5,6-dihydro-10H-imidazo[1,2-a]pyrido[2,1-c]pyrazin-10-one] gave an EC50 in assay [2] of 1700 nM.

Turning to `O=c1ccn2c(c1O)-c1nccn1C(C1CC1)N2C(c1ccccc1)c1ccccc1` (centres unmarked) [Example 73, 6-benzhydryl-5-cyclopropyl-11-hydroxy-5,6-dihydro-10H-imidazo[1,2-d]pyrido[2,1-f][1,2,4]triazin-10-one], the EC50 in assay [2] stood at 170 nM.

`O=c1ccn2c(c1O)-c1nccn1CN2C1c2ccccc2CSc2ccccc21` (centres unmarked) [Example 74, 6-(6,11-dihydrodibenzo[b,e]thiepin-11-yl)-11-hydroxy-5,6-dihydro-10H-imidazo[1,2-d]pyrido[2,1-f][1,2,4]triazin-10-one]: the EC50 in assay [2] was 84 nM. This EC50 lies about 2-fold lower than the previous one.

Consider `O=c1ccn2c(c1O)-c1nccn1C(C1CC1)N2C1c2ccccc2CSc2ccccc21` (centres unmarked) [Example 76, 5-cyclopropyl-6-(6,11-dihydrodibenzo[b,e]thiepin-11-yl)-11-hydroxy-5,6-dihydro-10H-imidazo[1,2-d]pyrido[2,1-f][1,2,4]triazin-10-one], for which the midpoint of the response in assay [2], the EC50, lay at 160 nM.

In the case of `O=c1ccn2c(c1O)-c1nccn1C1(COC1)N2C1c2ccccc2CSc2ccccc21` (centres unmarked) [Example 80, 6-(6,11-dihydrodibenzo[b,e]thiepin-11-yl)-11-hydroxy-6H,10H-spiro[imidazo[1,2-d]pyrido[2,1-f][1,2,4]triazine-5,3′-oxetan]-10-one], the EC50 in assay [2] stood at 10 nM.

Turning to `O=c1ccn2c(c1O)-c1ncsc1CN2C(c1ccccc1)c1ccccc1` [Example 81, 5-benzhydryl-10-hydroxy-4,5-dihydro-9H-pyrido[1,2-b]thiazolo[4,5-d]pyridazin-9-one], the EC50 in assay [2] came to 7000 nM.

`O=c1ccn2c(c1O)-c1ncoc1CN2C(c1ccccc1)c1ccccc1` [Example 83, 5-benzhydryl-10-hydroxy-4,5-dihydro-9H-oxazolo[4,5-d]pyrido[1,2-b]pyridazin-9-one] registered an EC50 in assay [2] of 970 nM.

In turn, `O=c1ccn2c(c1O)-c1ocnc1CN2C(c1ccccc1)c1ccccc1` [Example 84, 5-benzhydryl-10-hydroxy-4,5-dihydro-9H-oxazolo[5,4-d]pyrido[1,2-b]pyridazin-9-one] showed an EC50 in assay [2] of 11000 nM.

Regarding `CC(=O)Oc1c2n(ncc1=O)[C@@H](C(c1ccc(F)cc1)c1ccc(F)cc1)Cn1ccnc1-2` [Example 85, (S)-6-(bis(4-fluorophenyl)methyl)-10-oxo-5,6-dihydro-10H-imidazo[2′,1′:3,4]pyrazino[1,2-b]pyridazin-11-yl acetate], it took 22 nM to reach a half-maximal effect in assay [2] (EC50).

In assay [2], `CC(C)C(=O)Oc1c2n(ncc1=O)[C@@H](C(c1ccc(F)cc1)c1ccc(F)cc1)Cn1ccnc1-2` [Example 86, (S)-6-(bis(4-fluorophenyl)methyl)-10-oxo-5,6-dihydro-10H-imidazo[2′,1′:3,4]pyrazino[1,2-b]pyridazin-11-yl isobutyrate] registered an EC50 of 21 nM. The EC50 values of the last two molecules are within 1.5-fold of each other.

As to `CC(C)CC(=O)Oc1c2n(ncc1=O)[C@@H](C(c1ccc(F)cc1)c1ccc(F)cc1)Cn1ccnc1-2` [Example 87, (S)-6-(bis(4-fluorophenyl)methyl)-10-oxo-5,6-dihydro-10H-imidazo[2′,1′:3,4]pyrazino[1,2-b]pyridazin-11-yl 3-methylbutanoate], the EC50 in assay [2] was found to be 21 nM.

Molecule `COC(=O)OCOc1c2n(ncc1=O)[C@@H](C(c1ccc(F)cc1)c1ccc(F)cc1)Cn1ccnc1-2` [Example 88, (S)-((6-(bis(4-fluorophenyl)methyl)-10-oxo-5,6-dihydro-10H-imidazo[2′,1′:3,4]pyrazino[1,2-b]pyridazin-11-yl)oxy)methyl methyl carbonate] showed a concentration giving a half-maximal response (EC50) in assay [2] of 42 nM. Compared with the last molecule, the EC50 is about 2-fold higher.
